The results in this text go back to patent US20190194179A1, “ANTIBIOTIC COMPOUNDS” (DISCUVA LTD., priority 2016, published 2019).

Where a name gives a salt, the structure may show the parent alone.

The experiment relates to Neisseria gonorrhoeae. Description: EC50 determination: plate-based broth growth assay (absorbance at 600 nm) of Neisseria gonorrhoeae. The experiment is classed as cell-based. Particulars: absorbance 600 nm after 20 hours at 37° C./5% CO2, read-out: IC50 (Inhibitory concentration) against Neisseria gonorrhoeae. On the procedure:
Actively growing Neisseria gonorrhoeae on GC agar (based on; Spence et. al. (2008): Curr. Protoc. Microbiol. 8:4A.1.1-4A.1.26) plates are harvested and transferred to GC broth (based on; Spence et al (2008): Curr. Protoc. Microbiol. 8:4A.1.1-4A.1.26) to generate a liquid stock. This culture is allowed to establish and grow to mid-log phase (at 37° C./5% CO2), finally this culture is diluted (˜10^5 cells/ml) to generate a seed inoculum to establish plate-based broth assays. EC50 values were determined by assaying growth (absorbance read at 600 nm, after 20 hours at 37° C./5% CO2) of Neisseria gonorrhoeae across a 10-point dilution series of the test compound. The EC50 value is determined from transformed data to identify the concentration of compound giving a 50% response relative to control samples (no compound).
For the compound `Clc1ccc2nc(Nc3nnc(CN4CCCC4)o3)oc2c1` [Example 77, 6-Chloro-N-(5-(pyrrolidin-1-ylmethyl)-1,3,4-oxadiazol-2-yl)benzo[d]oxazol-2-amine], the IC50 was at most 100 nM.
In the case of `CC1CCN(Cc2nnc(Nc3nc4cc(C(F)(F)F)ccc4o3)o2)C1` (stereo not shown) [Example 78, N-(5-((3-methylpyrrolidin-1-yl)methyl)-1,3,4-oxadiazol-2-yl)-5-(trifluoromethyl)benzo[d]oxazol-2-amine], the IC50 is at most 1000 nM.
With `FC1CCN(Cc2nnc(Nc3nc4cc(C(F)(F)F)ccc4o3)o2)C1` (stereo not shown) [Example 79, N-(5-((3-Fluoropyrrolidin-1-yl)methyl)-1,3,4-oxadiazol-2-yl)-5-(trifluoromethyl)benzo[d]oxazol-2-amine] the figure was at most 1000 nM; with `CN(C)Cc1nnc(Nc2nc3ccc(Cl)cc3o2)o1` [Example 81, 6-Chloro-N-(5-((dimethylamino)methyl)-1,3,4-oxadiazol-2-yl)benzo[d]oxazol-2-amine], at most 1000 nM; with `CN(C)Cc1nnc(Nc2nc3cc(C(F)(F)F)ccc3o2)o1` [Example 82, N-(5-((Dimethylamino)methyl)-1,3,4-oxadiazol-2-yl)-5-(trifluoromethyl)benzo[d]oxazol-2-amine], at most 1000 nM.
As for `Cc1nnc(Nc2nc3ccc(C(F)(F)F)cc3[nH]2)o1` [Example 83, 5-Methyl-N-(6-(trifluoromethyl)-1H-benzo[d]imidazol-2-yl)-1,3,4-oxadiazol-2-amine], the figure is at most 1000 nM; as for `COC(=O)c1ccc2[nH]c(Nc3nnc(C)o3)nc2c1` [Example 84, Methyl 2-((5-methyl-1,3,4-oxadiazol-2-yl)amino)-1H-benzo[d]imidazole-5-carboxylate], at most 10000 nM.
With `Cc1nnc(Nc2nc3cc(Cl)ccc3[nH]2)o1` [Example 85, N-(5-Chloro-1H-benzo[d]imidazol-2-yl)-5-methyl-1,3,4-oxadiazol-2-amine] the figure was at most 1000 nM; with `Cc1nnc(Nc2nc3cc(C(F)(F)F)ccc3[nH]2)s1` [Example 86, 5-Methyl-N-(5-(trifluoromethyl)-1H-benzo[d]imidazol-2-yl)-1,3,4-thiadiazol-2-amine], at most 1000 nM; with `Cc1nnc(Nc2nc3c(F)cccc3[nH]2)o1` [Example 87, N-(4-Fluoro-1H-benzo[d]imidazol-2-yl)-5-methyl-1,3,4-oxadiazol-2-amine], at most 1000 nM.
For `Cc1nnc(Nc2nc3cc(C(F)(F)F)ccc3n2C)o1` [Example 88, 5-Methyl-N-(1-methyl-5-(trifluoromethyl)-1H-benzo[d]imidazol-2-yl)-1,3,4-oxadiazol-2-amine], the IC50 is at most 1000 nM.
As for `Cc1nnc(Nc2nc3ccc(C(F)(F)F)cc3n2C)o1` [Example 89, 5-Methyl-N-(1-methyl-6-(trifluoromethyl)-1H-benzo[d]imidazol-2-yl)-1,3,4-oxadiazol-2-amine], the figure is at most 1000 nM; as for `Cc1nnc(Nc2nc3c(C)cccc3n2C)o1` [Example 90, N-(1,4-Dimethyl-1H-benzo[d]imidazol-2-yl)-5-methyl-1,3,4-oxadiazol-2-amine], at most 10000 nM; as for `Clc1ccc2nc(Nc3nnco3)[nH]c2c1` [Example 91, N-(6-Chloro-1H-benzo[d]imidazol-2-yl)-1,3,4-oxadiazol-2-amine], at most 100000 nM.
As for `Cn1c(Nc2nnco2)nc2ccc(Cl)cc21` [Example 92, N-(6-Chloro-1-methyl-1H-benzo[d]imidazol-2-yl)-1,3,4-oxadiazol-2-amine], the figure is at most 100000 nM; as for `CNCc1nnc(Nc2nc3cc(C(F)(F)F)ccc3o2)o1` [Example 93, N-(5-((Methylamino)methyl)-1,3,4-oxadiazol-2-yl)-5-(trifluoromethyl)benzo[d]oxazol-2-amine], at most 10000 nM; as for `CC(=O)N(C)Cc1nnc(Nc2nc3cc(C(F)(F)F)ccc3o2)o1` [Example 94, N-Methyl-N-((5-((5-(trifluoromethyl)benzo[d]oxazol-2-yl)amino)-1,3,4-oxadiazol-2-yl)methyl)acetamide], at most 10000 nM.
With `O=C(c1csc(Nc2nc3cc(C(F)(F)F)ccc3o2)n1)N1CCNCC1` [Example 95, Piperazin-1-yl(2-((5-(trifluoromethyl)benzo[d]oxazol-2-yl)amino)thiazol-4-yl)methanone hydrochloride] the figure was at most 1000 nM; with `O=C(O)c1csc(Nc2nc3cc(Cl)ccc3o2)n1` [Example 96, 2-((5-Chlorobenzo[d]oxazol-2-yl)amino)thiazole-4-carboxylic acid], at most 10000 nM; with `CN(C)CCNC(=O)c1csc(Nc2nc3cc(Cl)ccc3o2)n1` [Example 97, 2-((5-Chlorobenzo[d]oxazol-2-yl)amino)-N-(2-(dimethylamino)ethyl)thiazole-4-carboxamide], at most 1000 nM.
Consider `O=C(Nc1ccnc(F)c1)c1csc(Nc2nc3cc(C(F)(F)F)ccc3o2)n1` [Example 98, N-(2-fluoropyridin-4-yl)-2-((5-(trifluoromethyl)benzo[d]oxazol-2-yl)amino)thiazole-4-carboxamide], for which the IC50 was at most 100 nM.
As for `NC(=O)c1csc(Nc2nc3cc(Cl)ccc3o2)n1` [Example 99, 2-((5-Chlorobenzo[d]oxazol-2-yl)amino)thiazole-4-carboxamide], the figure is at most 1000 nM.
With `FC(F)(F)c1ccc2oc(Nc3nc(Cl)cs3)nc2c1` [Example 100, N-(4-Chlorothiazol-2-yl)-5-(trifluoromethyl)benzo[d]oxazol-2-amine] the figure was at most 1000 nM; with `NC(=O)c1csc(Nc2nc3ccc(C(F)(F)F)cc3o2)n1` [Example 101, 2-((6-(trifluoromethyl)benzo[d]oxazol-2-yl)amino)thiazole-4-carboxamide], at most 1000 nM; with `NC(=O)c1nnc(Nc2nc3ccc(C(F)(F)F)cc3o2)o1` [Example 102, 5-((6-(Trifluoromethyl)benzo[d]oxazol-2-yl)amino)-1,3,4-oxadiazole-2-carboxamide], at most 100000 nM.
As for `FC(F)(F)c1ccc2oc(Nc3nnc(C4CC4)o3)nc2c1` [Example 103, N-(5-Cyclopropyl-1,3,4-oxadiazol-2-yl)-5-(trifluoromethyl)benzo[d]oxazol-2-amine], the figure is at most 100 nM; as for `Cc1nnc(Nc2nc3ccc(C(F)(F)F)cc3o2)o1` [Example 104, N-(5-Methyl-1,3,4-oxadiazol-2-yl)-6-(trifluoromethyl)benzo[d]oxazol-2-amine], at most 100 nM; as for `CC(C)c1nnc(Nc2nc3cc(C(F)(F)F)ccc3o2)o1` [Example 108, N-(5-Isopropyl-1,3,4-oxadiazol-2-yl)-5-(trifluoromethyl)benzo[d]oxazol-2-amine], at most 1000 nM.
For `Cc1nnc(Nc2nc3ccc(Cl)cc3o2)o1` [Example 109, 6-Chloro-N-(5-methyl-1,3,4-oxadiazol-2-yl)benzo[d]oxazol-2-amine], the IC50 was at most 100 nM.
As for `FC(F)(F)c1ccc2oc(Nc3nnc(C(F)(F)F)o3)nc2c1` [Example 110, 5-(Trifluoromethyl)-N-(5-(trifluoromethyl)-1,3,4-oxadiazol-2-yl)benzo[d]oxazol-2-amine], the figure is at most 100000 nM.
As for `Cc1nnc(Nc2nc3cc(C(F)(F)F)ccc3o2)s1` [Example 111, N-(5-Methyl-1,3,4-thiadiazol-2-yl)-5-(trifluoromethyl)benzo[d]oxazol-2-amine], the figure is at most 1000 nM.
